Results from the supplement of paper PMC10307832.

Columns and labels:
Test in all cases: relative viability (nuclei count vs DMSO), 5 days (fraction); higher = more cells survive
Carboplatin + Linsitinib = compound: C1CC(C1)(C(=O)O)C(=O)O.[NH2-].[NH2-].[Pt+2] [Carboplatin] + C[C@]1(O)C[C@@H](c2nc(-c3ccc4ccc(-c5ccccc5)nc4c3)c3c(N)nccn32)C1 [Linsitinib] (partner 1 µM)
Method in brief: (§1)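 Relative viability divides the nuclei count in treated wells by that in vehicle wells. Lung cancer cell lines were seeded in 1536-well plates, dosed by pin tool the next day, and fixed and stained after 5 days in one step with final 0.05% Triton X-100, 1% formaldehyde and 1 ug/ml Hoechst. Dosing was a single drug or a fixed anchor-drug dose plus five library-drug doses (not always all listed) in √10 steps, and values are medians of duplicate plates imaged at 4×.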

Carboplatin + Bortezomib = compound: C1CC(C1)(C(=O)O)C(=O)O.[NH2-].[NH2-].[Pt+2] [Carboplatin] + CC(C)C[C@H](NC(=O)[C@H](Cc1ccccc1)NC(=O)c1cnccn1)B(O)O [Bortezomib] (partner 0.002 µM)
Method in brief: as §1

GSK126 + Pemetrexed = compound: CC[C@H](C)N1C=C(C2=C(C=C(C=C21)C3=CN=C(C=C3)N4CCNCC4)C(=O)NCC5=C(C=C(NC5=O)C)C)C [GSK126] + Nc1nc2[nH]cc(CCc3ccc(C(=O)N[C@@H](CCC(=O)O)C(=O)O)cc3)c2c(=O)[nH]1 [Pemetrexed] (partner 0.2 µM)
Method in brief: as §1

MLN4924 + OSI-027 = compound: NS(=O)(=O)OC[C@@H]1C[C@@H](n2ccc3c(N[C@H]4CCc5ccccc54)ncnc32)C[C@@H]1O [MLN4924] + COc1cccc2cc(-c3nc([C@H]4CC[C@H](C(=O)O)CC4)n4ncnc(N)c34)[nH]c12 [OSI-027] (partner 0.5 µM)
Method in brief: as §1

Cell Line | relative viability (Carboplatin + Linsitinib; first compound 0.08 µM) | relative viability (Carboplatin + Linsitinib; first compound 0.253 µM) | relative viability (Carboplatin + Linsitinib; first compound 0.8 µM) | relative viability (Carboplatin + Linsitinib; first compound 2.53 µM) | relative viability (Carboplatin + Linsitinib; first compound 8 µM) | relative viability (Carboplatin + Bortezomib; first compound 0.08 µM) | relative viability (Carboplatin + Bortezomib; first compound 0.253 µM) | relative viability (Carboplatin + Bortezomib; first compound 0.8 µM) | relative viability (Carboplatin + Bortezomib; first compound 2.53 µM) | relative viability (Carboplatin + Bortezomib; first compound 8 µM) | relative viability (GSK126 + Pemetrexed; first compound 0.08 µM) | relative viability (GSK126 + Pemetrexed; first compound 0.253 µM) | relative viability (GSK126 + Pemetrexed; first compound 0.8 µM) | relative viability (GSK126 + Pemetrexed; first compound 2.53 µM) | relative viability (GSK126 + Pemetrexed; first compound 8 µM) | relative viability (MLN4924 + OSI-027; first compound 0.04 µM) | relative viability (MLN4924 + OSI-027; first compound 0.1265 µM) | relative viability (MLN4924 + OSI-027; first compound 0.4 µM) | relative viability (MLN4924 + OSI-027; first compound 1.265 µM) | relative viability (MLN4924 + OSI-027; first compound 4 µM)
HCC-78 | 0.509 | 0.461 | 0.416 | 0.46 | 0.511 | 0.561 | 0.502 | 0.383 | 0.497 | 0.508 | 0.889 | 0.866 | 0.888 | 0.891 | 0.871 | 0.416 | 0.349 | 0.399 | 0.27 | 0.236
HCC-366 | 0.848 | 0.595 | 0.48 | 0.437 | 0.265 | 1.08 | 1.05 | 1.09 | 0.957 | 0.685 | 0.179 | 0.161 | 0.14 | 0.149 | 0.158 | 1.02 | 0.895 | 1.08 | 0.396 | 0.0921
HCC-827 | 1.04 | 0.891 | 0.857 | 0.936 | 0.955 | 1.18 | 1.09 | 1.09 | 1.02 | 0.991 | 0.264 | 0.285 | 0.249 | 0.27 | 0.287 | 0.794 | 0.558 | 0.686 | 0.151 | 0.159
HOP-62 | 0.982 | 0.996 | 0.949 | 0.947 | 0.801 | 0.922 | 0.87 | 0.593 | 0.668 | 0.603 | 0.335 | 0.355 | 0.284 | 0.289 | 0.419 | 0.73 | 0.565 | 0.337 | 0.0849 | 0.132
IA-LM | 0.617 | 0.766 | 0.632 | 0.582 | 0.461 | 0.804 | 0.836 | 0.633 | 0.792 | 0.535 |  |  |  |  |  |  |  |  |  | 
LC-2-ad | 0.903 | 0.859 | 0.808 | 0.752 | 0.721 | 1.09 | 1.1 | 1.11 | 0.985 | 0.831 | 0.257 | 0.265 | 0.278 | 0.281 | 0.253 | 0.952 | 0.727 | 0.439 | 0.224 | 0.262
LK-2 | 0.634 | 0.765 | 0.458 | 0.428 | 0.726 |  |  |  |  |  | 0.306 | 0.297 | 0.293 | 0.325 | 0.223 | 0.214 | 0.214 | 0.191 | 0.202 | 0.17
NCI-H358 | 0.826 | 0.806 | 0.796 | 0.772 | 0.751 |  |  |  |  |  | 0.184 | 0.182 | 0.174 | 0.166 | 0.197 | 0.968 | 0.649 | 0.492 | 0.0759 | 0.118
NCI-H522 |  |  |  |  |  |  |  |  |  |  | 1.02 | 0.772 | 0.95 | 0.865 | 1.06 | 0.666 | 0.64 | 0.398 | 0.317 | 0.465
NCI-H727 | 0.456 | 0.298 | 0.314 | 0.347 | 0.277 | 1.08 | 1.01 | 0.88 | 0.774 | 0.471 |  |  |  |  |  | 0.521 | 0.47 | 0.559 | 0.389 | 0.441
NCI-H1299 | 1.02 | 0.993 | 0.953 | 0.965 | 0.956 | 1.07 | 1.01 | 1.07 | 0.982 | 0.902 |  |  |  |  |  |  |  |  |  | 
NCI-H1395 | 1.02 | 1.05 | 0.82 | 0.751 | 0.576 |  |  |  |  |  | 0.942 | 0.773 | 0.867 | 0.988 | 0.759 | 0.641 | 0.606 | 0.602 | 0.349 | 0.39
NCI-H1623 |  |  |  |  |  |  |  |  |  |  |  |  |  |  |  | 0.404 | 0.421 | 0.404 | 0.333 | 0.314
NCI-H1648 |  |  |  |  |  |  |  |  |  |  | 0.693 | 0.766 | 0.884 | 0.945 | 0.76 | 0.246 | 0.235 | 0.21 | 0.205 | 0.228
NCI-H1650 |  |  |  |  |  | 0.221 | 0.195 | 0.193 | 0.198 | 0.178 | 0.393 | 0.437 | 0.39 | 0.302 | 0.344 | 0.564 | 0.379 | 0.184 | 0.102 | 0.17
NCI-H1703 | 1.84 | 1.04 | 0.829 | 1.32 | 0.813 | 0.494 | 0.503 | 0.347 | 0.425 | 0.34 |  |  |  |  |  |  |  |  |  | 
NCI-H1793 | 1.04 | 1.1 | 0.675 | 0.848 | 0.839 |  |  |  |  |  | 0.981 | 0.825 | 0.876 | 0.916 | 0.932 | 0.293 | 0.26 | 0.303 | 0.243 | 0.261
NCI-H1944 | 1.24 | 1.09 | 1.16 | 1.29 | 0.898 |  |  |  |  |  | 0.719 | 0.641 | 0.607 | 0.654 | 0.567 | 0.502 | 0.453 | 0.313 | 0.161 | 0.185
NCI-H2170 |  |  |  |  |  |  |  |  |  |  | 0.249 | 0.245 | 0.271 | 0.256 | 0.264 | 0.694 | 0.601 | 0.27 | 0.178 | 0.255
NCI-H2342 |  |  |  |  |  |  |  |  |  |  | 0.851 | 0.762 | 0.744 | 0.879 | 0.881 | 0.586 | 0.779 | 0.532 | 0.594 | 0.547
SK-MES-1 | 1.11 | 1.05 | 1.04 | 1.01 | 0.936 |  |  |  |  |  | 1.01 | 0.996 | 0.979 | 0.941 | 1.09 | 0.678 | 0.585 | 0.266 | 0.133 | 0.16
SW 900 |  |  |  |  |  |  |  |  |  |  | 0.498 | 0.45 | 0.463 | 0.46 | 0.493 | 0.266 | 0.412 | 0.217 | 0.0913 | 0.152
